Assay results as given in patent US20120101163A1, “COMPOSITION FOR INHIBITING CANCER METASTASIS” (TAIPEI MEDICAL UNIVERSITY, priority 2010, published 2012).

Key:
Type in all cases: cell-based, Human
[1] = test system: HT 1080 cells; assay: Cancer cell survival rate test (MTT); conditions: different concentrations, 24 hours
Experimental: 3. Cancer Cell Survival Rate Test (Lambert et al., 1997; Yang et al., 2006)
A medium in a culturing plate containing cells grown covering the whole bottom of the culturing plate, was removed. The cells were washed with 10 ml of PBS, and then suspended and mixed well with 10 ml of medium (a part of the cells need to be suspended with Trypsin-EDTA buffer). The numbers of the cells were calculated by a hemocytometer, and the cells were diluted to an appropriate cell concentration and added into the wells of a 24 well culturing plate by an amount of 500 μl/well. The 24 well culturing plates were placed in an incubator at 37° C. in a humidified atmosphere containing 5% CO2. After the cells were attached onto the bottom of the wells, the medium in each well was removed, and fresh mediums with different concentrations of a test drug were added into wells, respectively (if the cells were suspension cells, the fresh medium may be added into the wells, directly). Then, the 24 well culturing plates were placed in an incubator at 37° C. in a humidified atmosphere containing 5% CO2 for 24 hours. After that, an upper medium in each well was removed. The cells were washed with a PBS buffer twice, and then an MTT solution which was prepared with a medium was added to each well. […] After that, an ELISA reader was used to determine the absorbance for each well at 600 nm.

[2] = test system: matrix metalloproteinase-9; assay: Gelatin gel zymography of PMA-induced HT 1080 cells, MMP-9 activity
Experimental: 4. Gelatin Gel Zymography (Shim et al., 2003; Park et al., 2005; Hwang et al., 2006)
HT 1080 cells with appropriate cell numbers were cultured in 60 mm culturing plates for 12 hours, respectively. After the cells were attached onto the bottom of the plate and formed a monolayer, the medium in the plate was removed. Fresh serum free mediums with different concentrations of a test sample were added to the plates, respectively, and 100 nM PMA was added to each plate to induce the cells to express great quantities of matrix metalloproteinase-2 and matrix metalloproteinase-9, and the plates were placed in a temperature of 37° C. for 24 hours. After centrifugation, each cultured supernatant were saved and mixed with SDS-sample buffer under the same protein contents which were then injected into a 10% SDS-polyacrylamide gel (containing 1 mg/ml gelatin) and then electrophoresed. After the electrophoresis was completed, the gel was taken out and washed with 20 mM Tris-HCl containing 25% isopropanol three times; 10 minutes per time. Then the gel was equilibrated with 20 mM Tris-HCl for 30 minutes, and finally an incubate buffer (5 mM CaCl2 and 1 mM ZnCl2) was added to the gel and reacted with the gel overnight. Then the gel was stained with coomassie blue, and positions having matrix metalloproteinase activity of the gel presented a white color.

[3] = test system: matrix metalloproteinase-2; assay: Western blot analysis, MMP-2 protein expression in HT 1080 cells
Experimental: (§1) HT 1080 cells with appropriate cell numbers were cultured in 60 mm culturing plates for 12 hours, respectively. After the cells were attached onto the bottom of the plate and formed a monolayer, the medium in the plate was removed. Fresh serum-free mediums with different concentrations of a test drug were added to the plates, respectively, and 100 nM PMA was added to each plate to induce the cells to express great quantities of matrix metalloproteinase-2 and matrix metalloproteinase-9, and the plates were placed in a temperature of 37° C. for 24 hours. A quantitatively cultured supernatant in each plate was centrifuged or protein was extracted from cells in each plate to be quantitated, and then an SDS-sample buffer containing 2-ME was added therein to form a mixture. The mixture was injected into a 10% SDS-polyacrylamide gel […] and then electrophoresed. After electrophoresis was completed, the proteins in the gel were transferred to a PVDF membrane. The PVDF membrane was equilibrated with gelatin-NET at room temperature for 30 minutes. […]

[4] = test system: matrix metalloproteinase-9; assay: Western blot analysis, MMP-9 protein expression in HT 1080 cells
Experimental: as §1

[5] = test system: HT 1080 cells; assay: Cell adhesion assay (gelatin-coated plate)
Experimental: 11. Cell Adhesion Assay (Lee et al., 2005; Ouyang et al., 2005; Zhang et al., 2005)
HT 1080 cells were used to prepare a cell suspension with an appropriate concentration by a fresh serum free medium, and the cell suspension was mixed with test drugs with different concentrations, respectively and then added to wells of a 24 well culturing plate pre-coated with gelatin, respectively. The 24 well culturing plates were placed in an incubator at 37° C. for 30 minutes. After that, the upper medium in each well was removed and the cells were washed with a PBS buffer twice, and then an MTT solution which was prepared with a medium was added to each well. After the 24 well culturing plates were placed in an incubator at 37° C. for reacting for 4-6 hours, an upper medium in each well was removed, and 100 μl of DMSO was added to each well to solubilize the formazan precipitates. After that, an ELISA reader was used to determine the absorbance at 600 nm for each well. The calculation for the adhesion rate of the cells was: […]

[6] = about 0.1-2 mM, stated as embodiment, 'and/or' MMP-2
[7] = 0.4, 0.8, 1.2, and 1.6, 24 hours, Western blotting

NC(CCC(=O)NO)C(=O)O [DH, L-Glutamic acid γ-hydroxamate]
cytotoxicity to HT 1080 cells [1]: no significant cytotoxicity
protein activity of matrix metalloproteinase-9 secreted out of and left in HT 1080 cells ([2]; 0.4, 0.8, 1.2, and 1.6, 24 hours): also decreased
inhibition rate to the activity of matrix metalloproteinase-9 ([2]; HT 1080 cells treated 24 hours): greater than 50%
matrix metalloproteinase-9 inhibiting activity ([2]; HT 1080 cells, 0.4, 0.8, 1.2 and 1.6 mM, 24 hours): increased while the concentration thereof was increased
inhibition rate to the protein activity of matrix metalloproteinase-9 of a cancer cell [2, 6]: 40-70%
protein expression amount of matrix metalloproteinase-2 secreted out of and left in HT 1080 cells [3, 7]: all decreased
inhibition rate to the protein expression amount of metalloproteinase-2 of a cancer cell ([3]; about 0.1-2 mM, stated as embodiment, 'and/or' MMP-9): 40-90%
protein expression amount of matrix metalloproteinase-9 secreted out of and left in HT 1080 cells [4, 7]: all decreased
inhibition rate to the protein expression amount of matrix metalloproteinase-9 of a cancer cell [4, 6]: 40-90%
number of HT 1080 cells attached (adhesion) ([5]; 0.4, 1.2, 2 and 2.8 mM, gelatin coated plate, 30 minutes): slight dose dependent decreasing trend
inhibition rate to cancer cell adhesion ([5]; about 0.1-3 mM, stated as embodiment): 10-30%
